In ChEMBL document CHEMBL4477199, “Design and synthesis of novel bicalutamide and enzalutamide derivatives as antiproliferative agents for the treatment of prostate cancer” (Eur J Med Chem, 2016) one finds IC50 and solubility data, which are given here for 31 molecules.

One may read the IC50 as the concentration needed to halve the response being measured. Low readings indicate greater potency, high ones weaker potency.

Data set [1] deals with CWR22R. Kind of data set: Antiproliferative activity against human 22Rv1 cells after 96 hrs by propidium iodide staining based fluorescence 2D monolayer assay. Type of data set: functional, cell-based. Particulars: 22Rv1, 96 h.
Data set [2] deals with DU-145. Kind of data set: Antiproliferative activity against human DU145 cells after 96 hrs by propidium iodide staining based fluorescence 2D monolayer assay. Type of data set: functional, cell-based. To be noted: DU-145, 96 h.
For data set [3], the system named is LNCaP. Kind of data set: Antiproliferative activity against human LNCAP cells after 96 hrs by propidium iodide staining based fluorescence 2D monolayer assay. Type of data set: functional, cell-based.
Data set [4] relates to VCaP. Nature of the data set: Antiproliferative activity against human VCaP cells after 96 hrs by propidium iodide staining based fluorescence 2D monolayer assay. It is filed as functional, cell-based.
For data set [5] the following is noted: 96 h.
Description: Solubility in RPMI1640 culture medium at <30 uM incubated for 4 days by microscopic analysis
For data set [6] the following is noted: 33000 µM.
Description: Solubility in 100% DMSO at 33 mM at -20 degC

As for `CC(O)(COc1ccccc1OC(F)(F)F)C(=O)Nc1ccc(C#N)cc1C(F)(F)F` (stereo unspecified), the IC50 in data set [1] amounted to 16.7 µM; in data set [2] it was 27.1 µM; in data set [3], 33.8 µM; in data set [4] it was 43.9 µM. The solubility result in data set [5] and in data set [6] was “Soluble” in each case.
With `CC(O)(CS(=O)(=O)c1ccc(C(F)(F)F)cn1)C(=O)Nc1ccc([N+](=O)[O-])cc1C(F)(F)F` (stereo unspecified), the IC50 in data set [1], in data set [2], in data set [3] and in data set [4] was 100 µM each time. Also, the solubility result in data set [5] and in data set [6] was “Soluble” each time.
Take `C[C@](O)(CSc1ccccc1C(F)(F)F)C(=O)Nc1ccc(C#N)c(C(F)(F)F)c1`: the IC50 came to 5.3 µM in data set [1], 7.69 µM in data set [2], 7.9 µM in data set [3] and 2.95 µM in data set [4].
Turning to `CC(O)(COc1ccc(F)c(F)c1)C(=O)Nc1ccc(C#N)c(C(F)(F)F)c1` (stereo unspecified), the IC50 worked out at 35.5 µM in data set [1], 45.2 µM in data set [2], 19 µM in data set [3] and 25.6 µM in data set [4]. Moreover, the solubility entry in data set [5] and in data set [6] was “Soluble” in each case.
Regarding `C[C@](O)(CSc1ccc(F)cc1F)C(=O)Nc1ccc(C#N)c(C(F)(F)F)c1`, the IC50 came out at 17.2 µM in data set [1], 28.5 µM in data set [2], 25.2 µM in data set [3] and 18.3 µM in data set [4]. For the same molecule, the solubility result in data set [5] and in data set [6] was “Soluble” in each case.
With `CC(O)(CSc1ccc(C(F)(F)F)cn1)C(=O)Nc1ccc([N+](=O)[O-])cc1C(F)(F)F` (stereo unspecified), the IC50 in data set [1] was 13.6 µM; in data set [2], 19.7 µM; in data set [3], 11.1 µM; in data set [4], 17.2 µM. Further, the solubility entry in data set [5] and in data set [6] was “Soluble” in each case.
On to `CC(O)(CS(=O)(=O)c1cccc(C(F)(F)F)c1)C(=O)Nc1ccc(C#N)c(C(F)(F)F)c1` (stereo unspecified), for which the IC50 in data set [1] stood at 21 µM; in data set [2], 39.1 µM; in data set [3], 14.9 µM; in data set [4], 39.7 µM. The solubility result in data set [5] and in data set [6] was “Soluble” throughout.
Regarding `CC(O)(CSc1ccccc1C(F)(F)F)C(=O)Nc1ccc(C(F)(F)F)cc1` (stereo unspecified), the IC50 in data set [1] was 5.2 µM; in data set [2] it was 8.76 µM; in data set [3], 7.22 µM; in data set [4] it was 5.86 µM. The solubility result in data set [5] and in data set [6] was “Soluble” each time.
With `CC(O)(COc1cccc(C(F)(F)F)c1)C(=O)Nc1ccc(C(F)(F)F)cc1` (stereo unspecified), the half-inhibitory concentration (IC50) in data set [1] stood at 25.7 µM; in data set [2], 27.4 µM; in data set [3] it was 18.2 µM; in data set [4], 18.6 µM. Besides, the solubility result in data set [5] and in data set [6] was “Soluble” in each case.
For the molecule `CC(O)(CSc1ccc(F)cc1)C(=O)Nc1ccc([N+](=O)[O-])cc1C(F)(F)F` (stereo unspecified), the IC50 turned out to be 17.6 µM in data set [1], 26.4 µM in data set [2], 11.9 µM in data set [3] and 21.1 µM in data set [4]. In addition, the solubility entry in data set [5] and in data set [6] was “Soluble” throughout.
Turning to `CC(O)(COc1cccc(OC(F)(F)F)c1)C(=O)Nc1ccc(C#N)c(C(F)(F)F)c1` (stereo unspecified), the IC50 in data set [1] was determined as 9.79 µM; in data set [2] it was 16.4 µM; in data set [3], 9.83 µM; in data set [4], 9.91 µM. The solubility result in data set [5] and in data set [6] was “Soluble” each time.
For the molecule `CC(O)(CS(=O)(=O)c1ccc(F)cc1)C(=O)Nc1ccc([N+](=O)[O-])cc1C(F)(F)F` (stereo unspecified), the IC50 in data set [1] was found to be 46.7 µM; in data set [2], 60.7 µM; in data set [3], 38.6 µM; in data set [4] it was 58.2 µM. For the same molecule, the solubility result in data set [5] and in data set [6] was “Soluble” throughout.
As for `CC(O)(COc1ccccc1C(F)(F)F)C(=O)Nc1ccc(C#N)cc1C(F)(F)F` (stereo unspecified), the IC50 turned out to be 19.6 µM in data set [1], 33.2 µM in data set [2], 14 µM in data set [3] and 21.9 µM in data set [4]. Also, the solubility entry in data set [5] and in data set [6] was “Soluble” in each case.
As for `CC(O)(CSc1cccc(OC(F)(F)F)c1)C(=O)Nc1ccc(C(F)(F)F)cc1` (stereo unspecified), the IC50 turned out to be 15.9 µM in data set [1], 27.8 µM in data set [2], 13.9 µM in data set [3] and 18.8 µM in data set [4]. Moreover, the solubility result in data set [5] and in data set [6] was “Soluble” throughout.
Consider `CC(O)(CS(=O)(=O)c1ccccc1C(F)(F)F)C(=O)Nc1ccc(C#N)cc1C(F)(F)F` (stereo unspecified), for which the IC50 in data set [1] was 98.8 µM; in data set [2], 100 µM; in data set [3], 74 µM; in data set [4], 100 µM. In addition, the solubility result in data set [5] and in data set [6] was “Soluble” each time.
As for `CC(O)(COc1ccc(OC(F)(F)F)cc1)C(=O)Nc1ccc(C#N)c(C(F)(F)F)c1` (stereo unspecified), the IC50 in data set [1] is 17.2 µM; in data set [2], 18.4 µM; in data set [3], 13.6 µM; in data set [4] it was 17.6 µM. Moreover, the solubility entry in data set [5] and in data set [6] was “Soluble” throughout.
As to `CC(O)(CS(=O)(=O)c1ccc(C(F)(F)F)cc1)C(=O)Nc1ccc(C#N)cc1C(F)(F)F` (stereo unspecified), the IC50 in data set [1] is 27.9 µM; in data set [2], 44.6 µM; in data set [3] it was 32.9 µM; in data set [4], 43.3 µM. For the same molecule, the solubility result in data set [5] and in data set [6] was “Soluble” in each case.
As to `CC(O)(CSc1cccc(OC(F)(F)F)c1)C(=O)Nc1ccc([N+](=O)[O-])cc1C(F)(F)F` (stereo unspecified), the IC50 came out at 15.8 µM in data set [1], 21.6 µM in data set [2], 9.15 µM in data set [3] and 15.9 µM in data set [4]. Also, the solubility result in data set [5] and in data set [6] was “Soluble” throughout.
On to `CC(O)(CSc1ccc(C(F)(F)F)cc1)C(=O)Nc1ccc(C#N)cc1C(F)(F)F` (stereo unspecified), for which the solubility entry in data set [5] and in data set [6] was “Soluble” in each case.
Consider `CC(O)(CS(=O)(=O)c1cccc(C(F)(F)F)c1)C(=O)Nc1ccc([N+](=O)[O-])cc1C(F)(F)F` (stereo unspecified), for which the IC50 in data set [1] came to 18.1 µM; in data set [2], 32 µM; in data set [3], 16.8 µM; in data set [4] it was 38.7 µM. The solubility result in data set [5] and in data set [6] was “Soluble” each time.
On to `CC(O)(COc1ccccc1C(F)(F)F)C(=O)Nc1ccc(C#N)c(C(F)(F)F)c1` (stereo unspecified), for which the IC50 in data set [1] is 11.6 µM; in data set [2], 17.3 µM; in data set [3], 9.68 µM; in data set [4], 16.6 µM. Besides, the solubility result in data set [5] and in data set [6] was “Soluble” each time.
As for `C[C@](O)(CSc1ccc(OC(F)(F)F)cc1)C(=O)Nc1ccc(C#N)c(C(F)(F)F)c1`, the IC50 was 28.8 µM in data set [1], 29.8 µM in data set [2], 19.8 µM in data set [3] and 17.4 µM in data set [4]. Besides, the solubility entry in data set [5] and in data set [6] was “Soluble” in each case.
Consider `CC(O)(CSc1ccc(OC(F)(F)F)cc1)C(=O)Nc1ccc([N+](=O)[O-])cc1C(F)(F)F` (stereo unspecified), for which the IC50 was determined as 61.9 µM in data set [1], 69.6 µM in data set [2], 100 µM in data set [3] and 100 µM in data set [4]. Also, the solubility result in data set [5] and in data set [6] was “Soluble” throughout.
For the molecule `CC1(C)C(=O)N(c2ccc(C(F)(F)F)cc2)C(=O)N1c1cccc(C(F)(F)F)c1`, the IC50 worked out at 100 µM in data set [1], 100 µM in data set [2], 5.95 µM in data set [3] and 72.4 µM in data set [4]. For the same molecule, the solubility result in data set [5] and in data set [6] was “Soluble” in each case.
With `CC(O)(CSc1ccc(OC(F)(F)F)cc1)C(=O)Nc1ccc(C#N)c(C(F)(F)F)c1` (stereo unspecified), the IC50 in data set [1] was determined as 46.6 µM; in data set [2], 64 µM; in data set [3], 42.8 µM; in data set [4], 40.3 µM. In addition, the solubility entry in data set [5] and in data set [6] was “Soluble” each time.
As to `CC1(C)C(=O)N(c2ccc(C(F)(F)F)cc2)C(=O)N1c1ccc(C#N)c(C(F)(F)F)c1`, the IC50 in data set [1] is 63.6 µM; in data set [2], 100 µM; in data set [3], 9.37 µM; in data set [4], 30.1 µM. Moreover, the solubility entry in data set [5] and in data set [6] was “Soluble” in each case.
Consider `CC(O)(CS(=O)(=O)c1cccc(OC(F)(F)F)c1)C(=O)Nc1ccc([N+](=O)[O-])cc1C(F)(F)F` (stereo unspecified), for which the IC50 was found to be 18 µM in data set [1], 27.7 µM in data set [2], 12.2 µM in data set [3] and 20.3 µM in data set [4]. In addition, the solubility entry in data set [5] and in data set [6] was “Soluble” each time.
Take `CC(O)(CS(=O)(=O)c1ccc(F)cc1)C(=O)Nc1ccc(C#N)cc1C(F)(F)F` (stereo unspecified): the IC50 in data set [1] is 77 µM; in data set [2], 100 µM; in data set [3], 91.6 µM; in data set [4] it was 65.2 µM. Moreover, the solubility result in data set [5] and in data set [6] was “Soluble” each time.
On to `CC(O)(COc1ccc(C#N)cc1)C(=O)Nc1ccc(C#N)cc1C(F)(F)F` (stereo unspecified), for which the IC50 in data set [1] worked out at 42.9 µM; in data set [2], 100 µM; in data set [3], 34.7 µM; in data set [4], 61.4 µM. In addition, the solubility result in data set [5] and in data set [6] was “Soluble” throughout.
With `CC1(C)C(=O)N(c2cccc(C(F)(F)F)c2)C(=O)N1c1ccc(C#N)cc1C(F)(F)F`, the IC50 in data set [1] came out at 59.3 µM; in data set [2] it was 100 µM; in data set [3] it was 18.3 µM; in data set [4], 100 µM. Besides, the solubility entry in data set [5] and in data set [6] was “Soluble” each time.
For `CC(O)(CSc1ccc(C(F)(F)F)cc1)C(=O)Nc1ccc(C#N)c(C(F)(F)F)c1` (stereo unspecified), the solubility entry in data set [5] and in data set [6] was “Soluble” each time.
